Measurements published in patent US10300052B2, “Methods for increasing CFTR activity” (THE UAB RESEARCH FOUNDATION, priority 2012, dated 2019).

Molecular target: T1, WT-CFTR (Homo sapiens, UniProt P13569)
T1 construct: expressed in transfected cells
Assay: Short-circuit current (Isc) in Ussing chambers, CFBE41o- cells with stable WT-CFTR expression
Type: cell-based
Conditions: ivacaftor 10 μM after amiloride 100 μM and forskolin 100 nM, Cl- secretory gradient; CFBE41o- with stable WT-CFTR (FIG. 1A)
Protocol: CFBE41o-cells complemented by stable expression of WT-CFTR (by a lentivirus promoter) are shown in comparison to CFBE41o-cells without WT CFTR complementation (parental cells). *P<0.05, **P<0.005, n=5/condition.
The CFTR potentiator ivacaftor was chosen as an exemplary CFTR activator. The activity of ivacaftor was examined in WT-CFTR expressing cells.
Short-circuit current (Isc) was measured under voltage clamp conditions using MC8 voltage clamps and P2300 Ussing chambers (Physiologic Instruments, San Diego, Calif.) as previously described (2). Monolayers were initially bathed on both sides with identical Ringer's solutions containing (in mM) 115 NaCl, 25 NaHCO3, 2.4 KH2PO4, 1.24 K2HPO4, 1.2 CaCl2, 1.2 MgC2, 10 D-glucose (pH 7.4). Bath solutions were vigorously stirred and gassed with 95%02:5% CO2. Short-circuit current measurements were obtained using an epithelial voltage clamp (Physiologic Instruments). A one-second three-mV pulse was imposed every 10 seconds to monitor resistance calculated using Ohm's law. Where indicated, the mucosal bathing solution was changed to a low Cl-solution containing 1.2 NaCl and 115 Na+ gluconate, and all other components as above. Amiloride (100 μM) was added to block residual Na+ current, followed by the agonists forskolin, ivacaftor, and ATP as indicated (minimum five-min observation at each concentration). […]

T1 sequence (P13569 whole entry): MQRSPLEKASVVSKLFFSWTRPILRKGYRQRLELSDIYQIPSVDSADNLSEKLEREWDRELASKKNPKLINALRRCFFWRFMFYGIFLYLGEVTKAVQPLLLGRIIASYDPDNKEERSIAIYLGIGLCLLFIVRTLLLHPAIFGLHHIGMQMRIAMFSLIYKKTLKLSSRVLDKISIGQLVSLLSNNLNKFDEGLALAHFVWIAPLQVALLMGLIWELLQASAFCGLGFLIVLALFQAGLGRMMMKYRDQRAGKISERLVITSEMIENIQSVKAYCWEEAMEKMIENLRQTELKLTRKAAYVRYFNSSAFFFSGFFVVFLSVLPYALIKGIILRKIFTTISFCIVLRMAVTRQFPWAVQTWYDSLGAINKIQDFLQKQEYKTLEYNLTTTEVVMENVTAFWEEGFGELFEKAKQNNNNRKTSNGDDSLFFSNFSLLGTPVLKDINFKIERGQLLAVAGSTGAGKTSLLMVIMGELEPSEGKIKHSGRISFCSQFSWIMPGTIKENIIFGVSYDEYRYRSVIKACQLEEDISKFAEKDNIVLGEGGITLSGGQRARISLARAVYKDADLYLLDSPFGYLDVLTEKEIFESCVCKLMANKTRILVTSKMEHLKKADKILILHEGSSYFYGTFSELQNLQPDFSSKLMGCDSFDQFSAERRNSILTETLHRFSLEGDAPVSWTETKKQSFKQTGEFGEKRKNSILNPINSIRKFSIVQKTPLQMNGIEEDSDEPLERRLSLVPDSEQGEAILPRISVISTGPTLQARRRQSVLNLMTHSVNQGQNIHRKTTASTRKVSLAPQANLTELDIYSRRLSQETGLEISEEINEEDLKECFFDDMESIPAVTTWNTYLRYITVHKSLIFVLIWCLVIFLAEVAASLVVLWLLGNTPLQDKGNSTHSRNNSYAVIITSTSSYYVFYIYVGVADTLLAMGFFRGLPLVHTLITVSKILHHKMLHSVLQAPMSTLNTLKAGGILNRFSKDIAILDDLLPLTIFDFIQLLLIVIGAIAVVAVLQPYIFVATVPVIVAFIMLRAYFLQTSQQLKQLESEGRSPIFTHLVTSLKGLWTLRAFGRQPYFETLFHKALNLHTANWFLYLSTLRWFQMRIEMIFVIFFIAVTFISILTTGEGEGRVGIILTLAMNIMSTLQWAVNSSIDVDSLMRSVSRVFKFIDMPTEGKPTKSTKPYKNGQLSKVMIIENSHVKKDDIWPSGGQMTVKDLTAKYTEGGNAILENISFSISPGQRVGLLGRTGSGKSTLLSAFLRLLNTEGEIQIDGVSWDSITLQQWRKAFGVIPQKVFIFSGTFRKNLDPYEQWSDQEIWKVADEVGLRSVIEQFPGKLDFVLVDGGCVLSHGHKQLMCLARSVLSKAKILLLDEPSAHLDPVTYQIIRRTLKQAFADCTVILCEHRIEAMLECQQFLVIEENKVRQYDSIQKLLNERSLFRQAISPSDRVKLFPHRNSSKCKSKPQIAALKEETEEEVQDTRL

anion transport (Isc): robust increases
SMILES: CC(C)(C)c1cc(C(C)(C)C)c(NC(=O)c2c[nH]c3ccccc3c2=O)cc1O [ivacaftor]
